In PubChem BioAssay AID1963973 (Molecular Pharmacology Branch, DTP, NCI, 2024):
pIC50: −log10 of the molar value. Values belong to the compound of their own block, whether it stands above or below them.

Tested on: 883617-216-R-J1-PDC tumor spheroids, viability
Experiment: Anticancer human tumor 883617-216-R-J1-PDC patient-derived bladder carcinoma cell line growth inhibition [PI3K]
Conditions: spheroids with HUVEC and MSC; for pIC50: curve of first compound; for viability, T/C: stronger effect = lower value
How it was run: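 Three cell types, namely tumor cells, endothelial cells and mesenchymal stem cells, formed each spheroid. Combinations with four PI3K inhibitors were screened at clinically achievable concentrations decreasing by half-log, and spheroid viability was recorded.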

[1] = second compound 0.0316 µM, first compound 0.0316 µM
[2] = second compound 0.0316 µM, first compound 0.1 µM
[3] = second compound 0.0316 µM, first compound 0.316 µM
[4] = second compound 0.0316 µM, first compound 1 µM
[5] = second compound 0.0316 µM, first compound 3.16 µM
[6] = second compound 0.0316 µM, first compound 10 µM
[7] = second compound 0.1 µM, first compound 0.0316 µM
[8] = second compound 0.1 µM, first compound 0.1 µM
[9] = second compound 0.1 µM, first compound 0.316 µM
[10] = second compound 0.1 µM, first compound 1 µM
[11] = second compound 0.1 µM, first compound 3.16 µM
[12] = second compound 0.1 µM, first compound 10 µM
[13] = second compound 0.316 µM, first compound 0.0316 µM
[14] = second compound 0.316 µM, first compound 0.1 µM
[15] = second compound 0.316 µM, first compound 0.316 µM
[16] = second compound 0.316 µM, first compound 1 µM
[17] = second compound 0.316 µM, first compound 3.16 µM
[18] = second compound 0.316 µM, first compound 10 µM
[19] = second compound 1 µM, first compound 0.0316 µM
[20] = second compound 1 µM, first compound 0.1 µM
[21] = second compound 1 µM, first compound 0.316 µM
[22] = second compound 1 µM, first compound 1 µM
[23] = second compound 1 µM, first compound 3.16 µM
[24] = second compound 1 µM, first compound 10 µM
[25] = second compound 3.16 µM, first compound 0.0316 µM
[26] = second compound 3.16 µM, first compound 0.1 µM
[27] = second compound 3.16 µM, first compound 0.316 µM
[28] = second compound 3.16 µM, first compound 1 µM
[29] = second compound 3.16 µM, first compound 3.16 µM
[30] = second compound 3.16 µM, first compound 10 µM
[31] = second compound 10 µM, first compound 0.0316 µM
[32] = second compound 10 µM, first compound 0.1 µM
[33] = second compound 10 µM, first compound 0.316 µM
[34] = second compound 10 µM, first compound 1 µM
[35] = second compound 10 µM, first compound 3.16 µM
[36] = second compound 10 µM, first compound 10 µM
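Also: spheroids exposed to agents for 7 days before the viability read.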

pIC50 (second compound 0.0316 µM): < 5.00
pIC50 (second compound 0.1 µM): < 5.00
pIC50 (second compound 0.316 µM): < 5.00
pIC50 (second compound 1 µM): < 5.00
pIC50 (second compound 3.16 µM): < 5.00
pIC50 (second compound 10 µM): 5.49
Compound: CNC(=O)c1ccc(N2C(=S)N(c3ccc(C#N)c(C(F)(F)F)c3)C(=O)C2(C)C)cc1F + CC(Nc1ncnc2nc[nH]c12)c1cc2cccc(Cl)c2c(=O)n1-c1ccccc1
viability, T/C [1]: 91.8%
viability, T/C [2]: 94.3%
viability, T/C [3]: 92.8%
viability, T/C [4]: 96.2%
viability, T/C [5]: 83.9%
viability, T/C [6]: 89%
viability, T/C [7]: 89.4%
viability, T/C [8]: 93.2%
viability, T/C [9]: 90.2%
viability, T/C [10]: 103%
viability, T/C [11]: 89.8%
viability, T/C [12]: 67%
viability, T/C [13]: 88.1%
viability, T/C [14]: 98.9%
viability, T/C [15]: 84.9%
viability, T/C [16]: 88.6%
viability, T/C [17]: 82.7%
viability, T/C [18]: 70.2%
viability, T/C [19]: 84.5%
viability, T/C [20]: 90.8%
viability, T/C [21]: 83%
viability, T/C [22]: 89.8%
viability, T/C [23]: 73.3%
viability, T/C [24]: 79.7%
viability, T/C [25]: 70.6%
viability, T/C [26]: 78.5%
viability, T/C [27]: 72.7%
viability, T/C [28]: 76.4%
viability, T/C [29]: 69.2%
viability, T/C [30]: 55.6%
viability, T/C [31]: 50.8%
viability, T/C [32]: 53.1%
viability, T/C [33]: 50.5%
viability, T/C [34]: 47.4%
viability, T/C [35]: 50.6%
viability, T/C [36]: 38.9%

IC50 (curve of compound): 4.76 µM [middle of 4 runs]
Compound: CCCS(=O)(=O)Nc1ccc(F)c(C(=O)c2c[nH]c3ncc(-c4ccc(Cl)cc4)cc23)c1F
viability, T/C (compound 0.0316 µM): 99.5% [middle of 4 runs]
viability, T/C (compound 0.1 µM): 98.2% [middle of 4 runs]
viability, T/C (compound 0.316 µM): 97% [middle of 4 runs]
viability, T/C (compound 3.16 µM): 73.8% [middle of 4 runs]
viability, T/C (compound 10 µM): 9.39% [middle of 4 runs]

pIC50 (second compound 0.0316 µM): < 5.00
pIC50 (second compound 0.1 µM): 5.18
pIC50 (second compound 0.316 µM): > 7.50
pIC50 (second compound 1 µM): > 7.50
pIC50 (second compound 3.16 µM): > 7.50
pIC50 (second compound 10 µM): > 7.50
Compound: C#Cc1c(F)ccc2cc(O)cc(-c3ncc4c(N5CC6CCC(C5)N6)nc(OCC56CCCN5CC(F)C6)nc4c3F)c12 (stereo not given) + Cc1nc(NC(=O)N2CCCC2C(N)=O)sc1-c1ccnc(C(C)(C)C(F)(F)F)c1
viability, T/C [1]: 81.1%
viability, T/C [2]: 89.1%
viability, T/C [3]: 77.6%
viability, T/C [4]: 80.9%
viability, T/C [5]: 79.7%
viability, T/C [6]: 57.5%
viability, T/C [7]: 69.8%
viability, T/C [8]: 66.5%
viability, T/C [9]: 76.8%
viability, T/C [10]: 74.2%
viability, T/C [11]: 63.1%
viability, T/C [12]: 41.1%
viability, T/C [13]: 53.8%
viability, T/C [14]: 47.3%
viability, T/C [15]: 45.5%
viability, T/C [16]: 46.5%
viability, T/C [17]: 43.7%
viability, T/C [18]: 24.7%
viability, T/C [19]: 28.2%
viability, T/C [20]: 28.3%
viability, T/C [21]: 26.8%
viability, T/C [22]: 29%
viability, T/C [23]: 24.7%
viability, T/C [24]: 19.9%
viability, T/C [25]: 15.2%
viability, T/C [26]: 13.1%
viability, T/C [27]: 12.6%
viability, T/C [28]: 14.5%
viability, T/C [29]: 15.3%
viability, T/C [30]: 8.2%
viability, T/C [31]: 7.88%
viability, T/C [32]: 7.4%
viability, T/C [33]: 5.56%
viability, T/C [34]: 7.83%
viability, T/C [35]: 5.24%
viability, T/C [36]: 0.61%
